EP1428520A2, “Lipase inhibitors in deodorants and antiperspirants” (Henkel Kommanditgesellschaft auf Aktien, priority 2002, dated 2004)

Test system: Lipase (Fa. Sigma) aus Pseudomonas species
Experiment: In vitro lipase inhibition test (Lipase Color Liquid assay, photometric release of methylresorufin)
Format: biochemical
Conditions: 37°C, pH 8.4, activity without inhibitor = 100%
Source text: Die hemmende Wirkung der Enzym-Inhibitoren wurde in vitro an einem geeigneten Modellenzym nachgewiesen. Da eine hautrelevante Lipase nicht zur Verfügung stand, diente die Lipase (Fa. Sigma) aus Pseudomonas species als Modellenzym, um die Hemmwirkung der erfindungsgemäß verwendeten Inhibitoren zu testen. Als Referenz diente Hinokitiol.
Der Nachweis der Lipase-Enzymaktivität erfolgt analog zu den Angaben im Lipase Color Liquid Autom ―Datenblatt der Fa. Sentinel. Hierbei wird die Lipase-katalysierte Spaltung von 1,2-O-dilauryl-rac-glycero-3-glutarsäure-(6'-methylresorufin)-ester in Glutarsäure und Methylresorufin bestimmt. Die Freisetzung des Methylresorufin verursacht eine Purpurfärbung (λ = 580 nm), deren Bildung photometrisch verfolgt wird. [drawing 4]
Der Assay wurde nach Herstellerangaben (37°C, Gesamtvolumen 1.21 ml) durchgeführt und enthielt: 37 mM Tris-Puffer (pH 8.4), 1,6 mM Desoxycholat, 6.6 mM Taurodesoxycholat, 0.9 mg/l Colipase, 1.5 mM Tartrat, 0.1 mM CaCl2 und 0.24 mM 1,2-O-dilauryl-rac-glycero-3-glutaric acid-(6'-methylresorufin)-ester (Substrat). Die Reaktion wurde mit 0.005 U Lipase (10 µl) gestartet und nach einer Inkubation von einer Minute die Zunahme der Absorption bei […] über 2 min verfolgt. Der lineare Anstieg der Absorption (A) pro Zeiteinheit (t) war hierbei ein Maß für die Aktivität des Enzyms (ΔA/Δt). Die Aktivität des Enzyms in Abwesenheit eines Inhibitors, (ΔA1/Δt1 ), wurde als Referenz gleich 100% gesetzt. Unter analogen Bedingungen wurden die Aktivitäten in Gegenwart eines Inhibitors (ΔA2/Δt2) bestimmt. Die Hemmwirkung des Inhibitors bzw. die Minderung der Enzymaktivität entspricht dann: 100% - (ΔA2/Δt2 )/( ΔA1/Δt1 )%.

Hemmwirkung (Minderung der Lipase-Aktivität) (inhibitor concentration 0,01 % (v/v)): 29%
Hemmwirkung (Minderung der Lipase-Aktivität) (inhibitor concentration 0,1 % (v/v)): 56%
Hemmwirkung (Minderung der Lipase-Aktivität) (inhibitor concentration 1 % (v/v)): 85%
SMILES: CCCCCCCCCCCC(=O)NC(CCC(=O)O)C(=O)O (stereo not drawn) [Protelan AGL95PV, Natriumlauroylglutamat]
